Measured values reported in patent US20080269102A1, “3-(2-Alkoxycarbonyloxy-Phenyl) Acrylic Acid Esters And Their Use As Precursors For The Delivery Of Olfactory Compounds” (GIVAUDAN SA, priority 2004, published 2008).

What was measured:
[1] = UV-spectra / colour comparison of protected and non-protected fragrance precursor in presence of a fabric conditioner; assay type: physicochemical; conditions: 0.1 mg/ml in CH3CN/H2O (3:2), visually judged
Procedure: UV-Spectra Comparison (Protected/Non Protected Fragrance in Presence of a Fabric Conditioner)
Solutions A to D, 5 ml each, were prepared using CH3CN/H2O (3:2) as a solvent and their colour visually judged.
After adding a fabric conditioner to a solution comprising an unprotected fragrance precursor (solution A/B) the solution turned bright yellow, whereas a solution comprising a protected fragrance precursor (solution C/D) remains colourless.
The UV-spectra of solutions A to D were recorded and are depicted in FIG. 1.

[2] = additive fabric conditioner (30 mg)

| SMILES | melting point [°C] | Colour [1, 2] | Colour ([1]; additive none) |
| --- | --- | --- | --- |
| CC(C)=CCCC(C)CCOC(=O)C=Cc1ccccc1O (stereo not drawn) [Example 1, 3-(2-Hydroxy-phenyl)acrylic acid 3,7-dimethyl-oct-6-enyl ester] | 37 to 39 | – | – |
| C=CCCCCCCCCOC(=O)C=Cc1ccccc1O [Example 2, 3-(2-Hydroxy-phenyl)acrylic acid dec-9-enyl ester] | 58 | Bright | colourless |
| C=CCCCCCCCCOC(=O)C=Cc1ccccc1OC(=O)Oc1ccccc1C=CC(=O)OCCCCCCCCC=C [Example 3] | – | colourless | colourless |
